Target: lactate oxidase from Streptococcus faecalis ATCC 12755 (Enterococcus casseliflavus, UniProt C9AC47)
Conditions: read-out: Km for L(+)-lactate; 30° C., potassium phosphate buffer pH 7.0
Method: For spectrophotometric assay of the lactate oxidase standard reaction mixtures contained in a total volume of 1.0 ml: 100 μmoles potassium phosphate buffer, pH 7.0, 25 μmoles lactic acid, 30 μg horseradish peroxidase (5.6 purpurogallin units), and 0.25 μmoles orthodianisidine. Samples were equilibrated at 30° C. and then reactions initiated by addition of S. faecalis lactate oxidase. Absorbance at 430 nm was measured in a Beckman A-25 Spectrophotometer. Initial rates were calculated from the linear portion of the curve and converted to units of lactate oxidase activity were appropriate. One unit=1 μmole of dye produced per minute at 30° C. using an ε=1.1×10^4 for orthodianisidine.
Reaction mixtures contained in a total volume of 1.0 ml: 90 μmoles potassium phosphate buffer, (pH 7.0), 0.2 μmoles orthodianisidine, or 96 μg 4-aminoantipyrene hydrochloride and 32 μg 1,7-dihydroxynaphthalene, 25 μg horseradish peroxidase (5.6-purpurogallin units) and 0.64 mg lactate oxidase (0.4 units).
Samples were equilibrated at 30° C. and the initial absorbance measured at 430 nm. […] For each serum sample, a blank, which contained all components except the lactate oxidase, was treated in the same manner as the sample. The ΔA430 for each blank was subtracted from the ΔA430 of the appropriate sample and the lactate concentration was determined by comparison to a lactate standard curve. […]

Sequence of lactate oxidase from Streptococcus faecalis ATCC 12755 (C9AC47 entry or part of it): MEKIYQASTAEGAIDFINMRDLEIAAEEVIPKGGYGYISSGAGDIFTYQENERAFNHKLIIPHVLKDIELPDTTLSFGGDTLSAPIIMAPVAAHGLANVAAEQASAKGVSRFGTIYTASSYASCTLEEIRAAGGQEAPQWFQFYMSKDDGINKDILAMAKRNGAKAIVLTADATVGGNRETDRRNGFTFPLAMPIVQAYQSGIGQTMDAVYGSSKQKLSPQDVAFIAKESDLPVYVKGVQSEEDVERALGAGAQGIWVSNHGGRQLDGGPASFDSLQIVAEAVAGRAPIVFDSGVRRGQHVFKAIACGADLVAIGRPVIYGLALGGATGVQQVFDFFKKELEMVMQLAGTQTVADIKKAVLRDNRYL

SMILES: C[C@H](O)C(=O)O [L(+)-lactate]
- Km: 200 µM

Reference: USRE32016E, “Analysis of lactic acid or lactate using lactate oxidase” (Eastman Kodak Company, priority 1981, dated 1985)
